In patent US9340500B2, “Aromatic heterocyclic derivative having TRPV4-inhibiting activity” (SHIONOGI & CO., LTD., priority 2011, dated 2016):
pIC50, pKi: −log10 of the molar value. In brackets after ≈: the same amount, converted by molar mass.

What was measured:
[1] = molecular target: T1, human TRPV4 (Homo sapiens (Human), UniProt Q9HBA0); assay: Test Example 1: measurement of TRPV4 inhibitory activity (Fluo 4-AM, FLIPR TETRA, 4α-PDD 1 μmol/L); assay type: cell-based; details: hTRPV4/CHO cells; for pIC50: 4α-PDD 1 μmol/L; for pKi: calculated from IC50 and 4α-PDD EC50
Method: (§1) For each compound, TRPV4 inhibitory activity was measured using cells.
(§2) (1) The TRPV4 inhibitory activity was measured using CHO-K1 cells stably expressing human TRPV4 (hTRPV4/CHO cells).
(2) In the day before the experimental day, frozen cell were thawed and washed with the culture medium (MEM-α, 10% FBS, 2 mmol/L GlutaMax, 50 unit Penicillin, 50 μg/mL Streptomycin). Then cells were suspended in the culture medium.
(3) The 384-well plates which hTRPV4/CHO cells were seeded at densities of 4000 cells/well in the culture medium and cultured in a CO2 incubator in the presence of 5% CO2 at 37° C. for overnight was used as assay plates.
(4) The assay plate was washed with assay buffer (Hanks, 20 mmol/L HEPES, 2.5 mmol/L probenecid, pH7.4), and the buffer were remained at 20 μL/well.
(5) 10 μl of dye loading buffer (9 μmol/L Fluo 4-AM, 0.09% Pluronic F-127/assay buffer) was added to each well, then the assay plate was incubated in a CO2 incubator in the presence of 5% CO2 at 37° C. for one hour. (final 3 μmol/L Fluo4-AM).
(6) The assay plate was washed with the assay buffer, and the buffers were remained at 20 μL/well. Then the assay plate was incubated for 10 min at room temperature.
(7) Diluted compound solution was dispensed to each well in the compound plate, and mixed with built-in Pipette and Mixer of the Fluorescence analysis system FLIPR TETRA (Molecular devices).
(8) After incubation for 5 min, 20 μL of 4α-PDD solution were applied to each well of assay plate and mixed with the FLIPR TETRA. (final 1 μmol/L 4α-PDD)
(9) The fluorescent intensity was measured with FLIPR TETRA system for 10 min from the point of time addition the compound solution, at Ex 470-495 nm, Em 515-575 nm wavelength.
TRPV4 inhibitory activity (IC50 value and Ki value) of a compound was evaluated according to the following procedure.
(10) In the presence of the compound, the difference between maximal and minimal of fluorescent intensity value for 5 min from just before addition of 4α-PDD solution was calculated, and it was referred as Max-Min value. Max-Min value of the Ruthenium Red at 20 μM was defined as 100% inhibitory activity, Max-Min value in the absence of the compound was defined as 0% inhibitory activity. The TRPV4 inhibitory activity of the compound was calculated by the following formula. (1−(Max-Min value of the compound−100% inhibitory activity)/(0% inhibitory activity−100% inhibitory activity))×100 (11) Inhibitory activity was calculated at 10 points with three fold serial dilution, in the final concentration of the compound from 10 μmmol/L to 0.5 nmol/L, the IC50 value was calculated by logistic approximation method. (12) In the absence of the compound, the fluorescent intensity was measured as the same method with 10, 1, 0.5, 0.2, and 0 μmol/L as final concentration of 4α-PDD. The difference of minimal and maximal fluorescent intensity value for 5 min from just before addition of 4α-PDD solution was calculated, and it was referred as Max-Min value. Max-Min value of the 4α-PDD at 10 μmol/L was defined as 100% activity, Max-Min value in the absence of 4α-PDD was defined as 0% activity. The TRPV4 activity of each concentration of 4α-PDD was calculated by the following formula. (Max-Min value of the each 4α-PDD concentration−0% activity)/(100% activity−0% activity))×100 (13) Effective activity was calculated in 5 concentrations of 4α-PDD the above. The EC50 value was calculated by logistic approximation method. The Ki value of a compound was calculated by the following formula. Ki (nmol/L)=IC50 value (nmol/L)/(1+[…] (test 4α-PDD concentration (nmol/L)/EC50 value (nmol/L))

[2] = Solubility test; assay type: physicochemical; details: fassgf or other biorelevant, kinetic from dmso stock, artificial intestinal juice pH 6.8, 16 hours at 25° C.
Method: The solubility of each compound is determined under 1% DMSO addition conditions. A 10 mmol/L solution of the compound is prepared with DMSO, and 6 μL of the compound solution is added to 594 μL of an artificial intestinal juice (water and 118 mL of 0.2 mol/L NaOH reagent are added to 250 mL of 0.2 mol/L potassium dihydrogen phosphate reagent to reach 1000 mL) with a pH of 6.8. The mixture is left standing for 16 hours at 25° C., and the mixture is vacuum-filtered. The filtrate is two-fold diluted with methanol/water=1/1, and the compound concentration in the filtrate is measured with HPLC or LC/MS/MS by the absolute calibration method.

[3] = molecular target: T1, human TRPV4; assay: Test Example 3: measurement of TRPV4 inhibitory activity (Fluo-3, FDSS 3000, 4α-PDD); assay type: cell-based; details: hTRPV4/CHO cells, calculated from IC50 and 4α-PDD EC50
Method: as §1, §2
(2) Frozen cells were thawed and subcultured with the medium (MEM-α, 10% FBS, […], 50 unit/mL penicillin, 50 μg/mL streptomycin, 1 mg/mL G418).
(3) The 96-well plates which hTRPV4/CHO cells were seeded at densities of 2×10^4 cells/well in the culture medium and cultured in a CO2 incubator in the presence of 5% CO2 at 37° C. for 24 h was used as assay plates.
(4) The assay plate was washed with assay buffer (Hanks, […], […], pH7.4).
(5) Fluo-3, fluorescent dye for Ca influx assay was added to each well, then the assay plate was incubated in a CO2 incubator in the presence of 5% CO2 at 37° C. for one hour (final conc.; 5 μmmol/L Fluo-3).
(6) The assay plate was washed with the assay buffer, and the buffer was remained at 30 μL/well. Then the assay plate was incubated for 10 min at 37° C.
(7) Diluted compound solution was dispensed to each well in the compound plate, and mixed with built-in Pipette and Mixer of the fluorescence analysis system FDSS 3000 (Hamamatsu Photonics).
(8) 50 μL of 4α-PDD solution (concluding 0.1% Pluronic F-127) was applied to each well of assay plate and mixed.
(9) The fluorescent intensity was measured by FDSS 3000 for 8 min from the point of time addition the compound solution, at Ex 480 nm, Em 540 nm wavelength.
TRPV4 inhibitory activity (Ki value) of a compound was evaluated according to the following procedure.
(10) In the presence of the compound, the difference between maximal and minimal of fluorescent intensity value for 8 min from just before addition of 4α-PDD solution was calculated, and it was referred as Max-Min value. Max-Min value of the Ruthenium Red at 10 μM was defined as 100% inhibitory activity, Max-Min value in the absence of the compound was defined as 0% inhibitory activity. The TRPV4 inhibitory activity of the compound was calculated by the following formula. (1−(Max-Min value of the compound−100% inhibitory activity)/(0% inhibitory activity−100% inhibitory activity))×100 (11) By the following formula, inhibitory activity was calculated at 10 points with three fold serial dilution, in the final concentration of the compound from 10 μmmol/L to 0.5 nmol/L. The IC50 value was calculated by dose-response curve. 100−[(fluorescent intensity in the presence of the compound−fluorescent intensity of back ground)/(total fluorescent intensity−fluorescent intensity of back ground)]×100 (12) In the presence of the compound, activity of 4α-PDD was measured at 9 points with three fold serial dilution from 20 μmol/L. Activity of 4α-PDD was calculated by the following formula. (Max-Min value of the each 4α-PDD concentration−0% activity)/(100% activity−0% activity))×100 (13) Effective activity was calculated in 4α-PDD the above. The EC50 value was calculated by dose-response curve. (14) The Ki value of a compound was calculated by the following formula. Ki (nmol/L)=IC50 value (nmol/L)/([A]/EC50 value (nmol/L)) [A]; Concentration of agonist (nmol/L)

[4] = artificial intestinal juice (phosphate buffer) with 1% DMSO

T1 sequence (Q9HBA0 whole entry): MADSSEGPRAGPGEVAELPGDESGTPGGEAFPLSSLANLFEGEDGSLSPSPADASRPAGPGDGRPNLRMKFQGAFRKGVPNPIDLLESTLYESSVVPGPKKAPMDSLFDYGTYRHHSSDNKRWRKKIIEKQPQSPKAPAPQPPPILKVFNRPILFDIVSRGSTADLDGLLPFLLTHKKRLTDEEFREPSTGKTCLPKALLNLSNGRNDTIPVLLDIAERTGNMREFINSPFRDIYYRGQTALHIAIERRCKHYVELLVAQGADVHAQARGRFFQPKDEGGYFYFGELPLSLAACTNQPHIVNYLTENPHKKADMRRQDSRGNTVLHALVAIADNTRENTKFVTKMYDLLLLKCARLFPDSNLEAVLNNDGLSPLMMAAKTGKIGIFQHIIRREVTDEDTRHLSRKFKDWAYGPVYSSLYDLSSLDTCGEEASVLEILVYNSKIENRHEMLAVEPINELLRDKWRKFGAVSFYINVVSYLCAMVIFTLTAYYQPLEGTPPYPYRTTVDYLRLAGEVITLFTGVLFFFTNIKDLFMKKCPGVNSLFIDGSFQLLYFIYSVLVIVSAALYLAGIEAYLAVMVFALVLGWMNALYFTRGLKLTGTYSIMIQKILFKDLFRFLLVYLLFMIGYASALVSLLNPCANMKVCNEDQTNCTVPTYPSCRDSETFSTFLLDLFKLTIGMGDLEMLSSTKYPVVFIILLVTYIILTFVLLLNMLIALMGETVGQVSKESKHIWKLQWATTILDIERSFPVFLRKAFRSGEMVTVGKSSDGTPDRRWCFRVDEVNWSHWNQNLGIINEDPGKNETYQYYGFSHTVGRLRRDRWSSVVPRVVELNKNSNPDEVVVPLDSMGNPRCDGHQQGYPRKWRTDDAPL

SMILES	pIC50 [1]	pKi [1]	solubility at 16 h [2, 4]	pKi [3]	solubility at 16 h ([2]; artificial intestinal juice (phosphate buffer), 1% DMSO)
Cc1c(C(=O)Nc2cccc(C(F)(F)F)c2)cc(C#N)n1CCCN1CCOCC1 [Compound I-079]	5.11	5.49	40.2 µM (≈ 16.9 µg/mL)		
O=C(Nc1cccc(C(F)(F)F)c1)c1cc(-c2ccccc2)n(CCCN2CCOCC2)c1C(F)(F)F [Compound I-028]	5.42			5.77	
Cc1c(C(=O)Nc2cccc(C(F)(F)F)c2)nc(-c2ccccc2)n1CCCN1CCOCC1 [Compound I-087]					5.2 µM (≈ 2.46 µg/mL)
O=C(Nc1cccc(C(F)(F)F)c1)c1cnc(-c2ccccc2)c(CCCN2CCOCC2)c1 [Compound I-088]	5.24	5.55	35.1 µM (≈ 16.5 µg/mL)		
COCCCn1c(-c2ccccc2)cc(C(=O)Nc2cccc(C(F)(F)F)c2)c1C [Compound I-010]	6.10			6.15	
O=C(Nc1cccc(C(F)(F)F)c1)c1cc(-c2ccccc2)n(CCCN2CCOCC2)n1 [Compound I-086]	5.47	5.80	8.3 µM (≈ 3.81 µg/mL)		
CC(=O)N1CCC(c2cc(C(=O)Nc3cccc(C(F)(F)F)c3)c(C)n2CCCN2CCOCC2)CC1 [Compound I-077]	5.33	5.70	> 50 µM		
Cc1c(C(=O)Nc2cccc(C(F)(F)F)c2)cc(-c2ccccc2)n1CCCN(C)C(=O)C1CCCC1 [Compound I-049]	6.62			6.38	
CC(=O)N1CCN(CCCn2c(-c3ccccc3)cc(C(=O)Nc3cccc(C(F)(F)F)c3)c2C)CC1 [Compound I-015]	5.59			5.84	
Cc1c(C(=O)Nc2cccc(C(F)(F)F)c2)cc(-c2ccccc2)n1CCCO [Compound I-006]	5.64			5.98	
Cc1c(C(=O)Nc2cccc(C(F)(F)F)c2)cc(-c2ccncc2)n1CCCN1CCOCC1 [Compound I-074]	5.77	6.11	> 50 µM		
Cc1c(C(=O)Nc2cccc(C(F)(F)F)c2)cc(-c2ccccc2)n1CCN1CCOCC1 [Compound I-083]	6.40			6.35	
Cc1c(C(=O)Nc2cccc(C(F)(F)F)c2)cc(-c2ccccn2)n1CCCN1CCOCC1 [Compound I-073]	6.47	6.80	28.9 µM (≈ 13.7 µg/mL)		
Cc1c(C(=O)Nc2cccc(C(F)(F)F)c2)cc(-c2ccccc2)n1CCCN(C)C(=O)c1ccno1 [Compound I-063]	6.29			6.60	
Cc1c(C(=O)Nc2cccc(C(F)(F)F)c2)cc(C2CCN(S(C)(=O)=O)CC2)n1CCCN1CCOCC1 [Compound I-078]	5.31	5.68	20.1 µM (≈ 11.2 µg/mL)		
COC(=O)NCCCn1c(-c2ccccc2)cc(C(=O)Nc2cccc(C(F)(F)F)c2)c1C [Compound I-027]	5.74			6.03	
Cc1c(NC(=O)Nc2cccc(C(F)(F)F)c2)cc(-c2ccccc2)n1CCCN1CCOCC1 [Compound I-081]	5.41			5.79	
Cc1c(C(=O)Nc2ccc(C(F)(F)F)cc2)cc(-c2ccccc2)n1CCCN1CCOCC1 [Compound I-024]	6.47			6.12	
O=C(Nc1cccc(C(F)(F)F)c1)c1cc(-c2ccccc2)nn1CCCN1CCOCC1 [Compound I-085]	5.89	6.23	14.5 µM (≈ 6.65 µg/mL)		
CC(=O)NCCCn1c(-c2ccccc2)cc(C(=O)Nc2cccc(C(F)(F)F)c2)c1C [Compound I-025]	5.49			5.95	
CC(=O)N(C)CCCn1c(-c2ccccc2)cc(C(=O)Nc2cccc(C(F)(F)F)c2)c1C [Compound I-070]	6.23			5.77	
Cc1c(C(=O)Nc2cccc(C(F)(F)F)c2)cc(-c2ccccc2)n1CCCN(C)CC(C)C [Compound I-032]	6.19			5.79	
Cc1c(C(=O)Nc2cccc(C(F)(F)F)c2)cc(-c2ccccc2)n1CCCN1CCCCC1 [Compound I-008]	7.09			6.49	
